In PubChem BioAssay (NCI):
Where “and” joins values, the source holds several entries; their conditions need not be identical. Equal entries are not always repeated.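 Cultured in 96-well plates, cells were exposed to test compound for 48 hours across five concentrations. At the GI50, growth is halved. At the TGI there is no net growth.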

Key:
Experiment in all cases: DTP human tumour cell line panel, 48 h
SF-268 CNS = test system: SF-268 CNS
KM20L2 colon = test system: KM20L2 colon
NCI-H226 lung = test system: NCI-H226 lung
SR leukemia = test system: SR leukemia
CCRF-CEM leukemia = test system: CCRF-CEM leukemia
HCC-2998 colon = test system: HCC-2998 colon
DLD-1 colon = test system: DLD-1 colon
A498 renal = test system: A498 renal
HOP-92 NSCLC = test system: HOP-92 NSCLC
MDA-MB-231 breast = test system: MDA-MB-231 breast

| SMILES | TGI (SF-268 CNS) | TGI (KM20L2 colon) [µM] | TGI (NCI-H226 lung) | TGI (SR leukemia) | TGI (CCRF-CEM leukemia) | TGI (HCC-2998 colon) | TGI (DLD-1 colon) [µM] | TGI (A498 renal) | TGI (HOP-92 NSCLC) | GI50 (SF-268 CNS) | GI50 (CCRF-CEM leukemia) | GI50 (NCI-H226 lung) | GI50 (MDA-MB-231 breast) | TGI (MDA-MB-231 breast) | GI50 (HCC-2998 colon) | GI50 (SR leukemia) | GI50 (A498 renal) | GI50 (HOP-92 NSCLC) |
| --- | --- | --- | --- | --- | --- | --- | --- | --- | --- | --- | --- | --- | --- | --- | --- | --- | --- | --- |
| CC(C)NC1CCCCC2c3ccccc3C12O (stereo not given) | > 100 µM | > 100 | > 100 µM | > 100 µM | > 100 µM |  |  |  |  |  |  |  |  |  |  |  |  |  |
| CCOc1ccc2c(c1)[n+]([O-])c(-c1ccccc1)c(N)[n+]2[O-] | > 100 µM | > 100 | > 100 µM |  | > 100 µM | > 100 µM | > 100 | > 100 µM |  |  |  |  |  |  |  |  |  |  |
| COc1ccc(/C=C2\C(=O)N(C(=O)c3ccc(NC(C)=O)cc3)N=C2C)cc1OC | > 100 µM |  | > 100 µM | > 100 µM | > 100 µM | > 100 µM | > 100 |  |  |  |  |  |  |  |  |  |  |  |
| O=S(=O)(c1ccccc1)N1CCC1c1ccccc1 (stereo not given) | > 100 µM | > 100 | > 100 µM |  | > 100 µM | > 100 µM |  | > 100 µM | > 100 µM |  |  |  |  |  |  |  |  |  |
| [N-]=[N+]=NC1C(Cl)C(=O)NC(=O)N1[C@H]1C[C@H](O)[C@@H](CO)O1 (stereo not given in full) | > 100 µM | > 100 |  |  | > 100 µM | > 100 µM | > 100 | > 100 µM | > 100 µM | 94 µM | 26.3 µM |  |  |  |  |  |  |  |
| CN1CCC2(CC1)C(=O)Nc1cc(NC(=O)c3ccc4c(c3)C[C@@H]3C(C)(C)[C@H](O)[C@H](F)C[C@@]3(C)O4)ccc12 | 31.9 µM |  | 49.3 µM | 88.2 µM | > 100 µM | 48.3 µM |  | 1.09 µM | 31.1 µM | 6.68 µM | 0.092 µM | 14 µM | 3.36 µM | 21.1 µM | 14.2 µM | 0.0514 µM | 0.135 µM | 1.97 µM |
| CN(C)C(=C1C(Br)=C(Br)C(Br)=C1Br)N(C)C | > 100 µM | > 100 |  |  | 95.3 µM | > 100 µM | > 100 |  | > 100 µM |  |  |  |  |  |  |  |  |  |
| COc1cc2c(cc1OCCCCCOc1ccc(-c3nc4ccccc4s3)cc1)N=C[C@@H]1CCCN1C2=O | 31.6 µM |  | 10.4 µM | 1.43 µM | > 100 µM | 9.06 µM |  | 11.5 µM | 3.62 µM | 5.62 µM | 2.48 µM | 3.02 µM | 1.02 µM | 4.2 µM | 3.02 µM | 0.222 µM | 5.29 µM | 0.886 µM |
| CCOc1ccc2nc3cc(N)ccc3c(N)c2c1 | 1.79 µM and 1.68 µM |  | 24.2 µM and 13.4 µM | 8.36 µM and 8.48 µM | 17.1 µM and 20.9 µM | 13.9 µM and 4.72 µM |  | 29.1 µM and 37.5 µM | 16.4 µM and 11.3 µM | 0.385 µM and 0.324 µM | 3.43 µM and 4.22 µM | 6.49 µM and 2.55 µM | 10.2 µM and 4.44 µM | 22.8 µM and 17.6 µM | 3.24 µM and 1.43 µM | 2.61 µM and 2.8 µM | 2.78 µM and 12.7 µM | 3.4 µM and 2.96 µM |
| O=S1(=O)[C@H](c2ccccc2)c2c(-c3ccccc3)sc(-c3ccccc3)c2[C@@H]1c1ccccc1 | > 100 µM | > 100 |  |  | > 100 µM | > 100 µM | > 100 |  | > 100 µM |  |  |  |  |  |  |  |  |  |
| COc1cccc2c1C(=O)c1c(O)c3c(c(O)c1C2=O)C[C@@](O)(/C(C)=N/NC(=O)c1cccc([N+](=O)[O-])c1)C[C@@H]3OC1CC(N)C(O)C(C)O1 (stereo not given in full) | 2.26 µM |  | 0.714 µM |  | 4.33 µM | 2.77 µM |  | 2.23 µM | 4.71 µM | 0.269 µM | 0.167 µM | 0.16 µM | 1.59 µM | 21.3 µM | 0.326 µM | 0.0155 µM | 0.564 µM | 0.201 µM |
| Oc1ccc(CCNc2nc3ccccc3c3[nH]c4ccccc4c23)cc1O | 30.1 µM |  | 24.3 µM | 5.74 µM | 4.35 µM | 14.1 µM |  | 26.5 µM | 2.95 µM | 5.7 µM | 1.59 µM | 11 µM | 2.98 µM | 11.8 µM | 3.54 µM | 1.92 µM | 13.6 µM | 1.31 µM |
| O=NN(CC1(O)OCC(O)C(O)C1O)C(Cc1c[nH]c2ccccc12)C(=O)O (stereo not given) |  | > 100 |  |  | > 100 µM | > 100 µM | > 100 | > 100 µM | > 100 µM |  |  |  |  |  |  |  |  |  |
| Clc1cccc(-c2cc(-c3ccc4c(c3)OCCO4)[nH]n2)c1 | 57.1 µM |  | 92.1 µM | 98.3 µM | 182 µM | 51.4 µM |  | 18.5 µM | 42.8 µM | 12.4 µM | 6.99 µM | 29.5 µM | 7.75 µM | 47.6 µM | 7.26 µM | 0.988 µM | 1.73 µM | 7.74 µM |
| O=c1oc2ccccc2cc1P(=O)(O)O | > 100 µM |  | > 100 µM | > 100 µM | > 100 µM | > 100 µM |  | > 100 µM | > 100 µM |  |  |  |  | > 100 µM |  |  |  |  |
